Assay results taken from the NIST ThermoML archive (doi:10.1021/acs.jced.8b00466).
± gives the expanded uncertainty stated by the source.

Assay: wn = mass fraction of the nth substance listed
Details: 102 kPa, Liquid, Vibrating tube method

O=S(=O)(O)O [sulfuric acid] + O
mass density [kg/m3]
Details | 273.15 K | 283.15 K | 293.15 K | 298.15 K | 303.15 K | 313.15 K | 323.15 K | 333.15 K
w1 = 0.0966 | 1069.26 ± 16 | 1066.08 ± 16 | 1062.3 ± 15 | 1060.23 ± 15 | 1058.04 ± 15 | 1053.6 ± 15 | 1049.23 ± 15 | 1043.53 ± 15
w1 = 0.1151 | 1085.84 ± 15 | 1082.07 ± 15 | 1077.83 ± 14 | 1075.55 ± 14 | 1073.22 ± 14 | 1068.89 ± 13 | 1063.56 ± 14 | 1058.71 ± 13
w1 = 0.1365 | 1101.81 ± 15 | 1097.5 ± 15 | 1092.86 ± 14 | 1090.39 ± 14 | 1087.86 ± 14 | 1082.6 ± 13 | 1078.45 ± 13 | 1072.64 ± 13
w1 = 0.1536 | 1114.2 ± 16 | 1109.5 ± 15 | 1104.52 ± 15 | 1101.94 ± 15 | 1099.31 ± 15 | 1093.86 ± 14 | 1089.88 ± 14 | 1084.63 ± 14
w1 = 0.1728 | 1128.95 ± 15 | 1123.83 ± 15 | 1118.46 ± 15 | 1115.73 ± 15 | 1112.95 ± 14 | 1107.33 ± 14 | 1101.93 ± 14 | 1095.88 ± 14
w1 = 0.192 | 1145.91 ± 16 | 1140.32 ± 16 | 1134.59 ± 16 | 1131.69 ± 16 | 1128.88 ± 15 | 1123.78 ± 15 | 1118.59 ± 15 | 1113.22 ± 15
w1 = 0.2112 | 1159.41 ± 17 | 1153.51 ± 16 | 1147.52 ± 16 | 1144.52 ± 16 | 1141.48 ± 16 | 1135.36 ± 16 | 1129.37 ± 15 | 1124.62 ± 15
w1 = 0.2304 | 1177.19 ± 17 | 1170.92 ± 16 | 1164.6 ± 16 | 1161.54 ± 16 | 1158.39 ± 15 | 1152.03 ± 15 | 1148.5 ± 15 | 1140.31 ± 15
w1 = 0.2409 | 1185.57 ± 17 | 1179.14 ± 17 | 1172.69 ± 16 | 1169.48 ± 16 | 1166.27 ± 16 | 1160.54 ± 16 | 1154.05 ± 16 | 1147.47 ± 15
w1 = 0.2688 | 1209.44 ± 17 | 1201.63 ± 16 | 1194.85 ± 16 | 1191.58 ± 16 | 1188.22 ± 16 | 1181.52 ± 16 | 1174.82 ± 16 | 1168.95 ± 16
w1 = 0.288 | 1224.11 ± 17 | 1217.14 ± 16 | 1210.18 ± 16 | 1206.76 ± 16 | 1203.33 ± 16 | 1196.6 ± 16 | 1189.76 ± 16 | 1183.88 ± 16
w1 = 0.3072 | 1241.05 ± 16 | 1233.47 ± 16 | 1227.15 ± 16 | 1223.62 ± 16 | 1220.11 ± 16 | 1213.75 ± 16 | 1206.84 ± 16 | 1200.67 ± 16
w1 = 0.3265 | 1256.77 ± 17 | 1249.51 ± 17 | 1242.27 ± 16 | 1238.85 ± 16 | 1235.29 ± 16 | 1228.03 ± 16 | 1221.02 ± 16 | 1214.92 ± 16
w1 = 0.3457 | 1272.18 ± 17 | 1264.81 ± 17 | 1257.51 ± 17 | 1253.89 ± 17 | 1250.3 ± 17 | 1243.38 ± 16 | 1236.27 ± 16 | 1230.89 ± 16
w1 = 0.3648 | 1288.04 ± 17 | 1280.59 ± 17 | 1273.21 ± 17 | 1269.57 ± 17 | 1265.94 ± 17 | 1258.73 ± 17 | 1251.57 ± 17 | 1244.44 ± 16
w1 = 0.384 | 1305.68 ± 18 | 1298.19 ± 17 | 1290.73 ± 17 | 1287.05 ± 17 | 1283.37 ± 17 | 1276.2 ± 17 | 1268.99 ± 17 | 1263.24 ± 17
w1 = 0.4 | 1319.14 ± 18 | 1311.55 ± 18 | 1304.07 ± 18 | 1300.36 ± 18 | 1296.68 ± 18 | 1289.37 ± 18 | 1282.4 ± 18 | 1275.2 ± 18
